Source: patent US12644001B2, “Fluorenyl cyanine dyes” (Biotium, Inc., priority 2020, dated 2026)

Test: Fluorescence properties (excitation and emission wavelength) of exemplary compounds
Assay type: physicochemical
Details: for λ^em (nm): emission wavelength; for λ^ex (nm): excitation wavelength
Excerpt: Exemplary compounds of the invention along with their known fluorescence properties are shown in Table 2 where λ^ex denotes excitation wavelength and λ^em denotes emission wavelength: […]

Structure (SMILES) | λ^em (nm) | λ^ex (nm)
CCCOCCOCCOCCOCCOCCONC(=O)CCC1(CCC(=O)NCCOCCOCCOCCOCCOCCOC)c2cc3c(cc2-c2c1cc(S(=O)(=O)O)cc2S(=O)(=O)[O-])C(C)(C)C(/C=C/C=C/C=C1/N(CCCCCC(=O)ON2C(=O)CCC2=O)c2cc4c(cc2C1(C)C)-c1c(cc(S(=O)(=O)O)cc1S(=O)(=O)O)C4(CCC(=O)NCCOCCOCCOCCOCCOCCOC)CCC(=O)NOCCOCCOCCOCCOCCOCCC)=[N+]3CCCCCC(=O)ON1C(=O)CCC1=O (stereo not drawn) [Compound E15] | 721 | 696
CC1(C)C2=CC3=[N+](CCN2c2ccccc21)c1cc2c(cc1C3(C)CCCCCC(=O)O)-c1ccccc1C2(C)C.[I-] (stereo not drawn) [Compound E1] | 518 | 445
CCCOCCOCCOCCOCCOCCONC(=O)CCC1(CCC(=O)NOCCOCCOCCOCCOCCOCCC)c2cc3c(cc2-c2c1cc(S(=O)(=O)O)cc2S(=O)(=O)[O-])C(C)(C)C(/C=C/C1=C(Oc2ccc(S(=O)(=O)O)cc2)C(=C/C=C2/N(CCCCCC(=O)ON4C(=O)CCC4=O)c4cc5c(cc4C2(C)C)-c2c(cc(S(=O)(=O)O)cc2S(=O)(=O)O)C5(CCC(=O)NCCOCCOCCOCCOCCOCCOC)CCC(=O)NCCOCCOCCOCCOCCOCCOC)/CCC1)=[N+]3CCCCCC(=O)ON1C(=O)CCC1=O [Compound E17] | 832 | 823
CCCOCCOCCOCCOCCOCCOCCOCCOCCOCCOCCONC(=O)CCC1(CCC(=O)NOCCOCCOCCOCCOCCOCCOCCOCCOCCOCCOCCC)c2cc(S(=O)(=O)[O-])ccc2-c2cc3c(cc21)[N+](CCCCCC(=O)ON1C(=O)CCC1=O)=C(/C=C/C1=C(Oc2ccc(S(=O)(=O)O)cc2)C(=C/C=C2/N(CCCCCC(=O)ON4C(=O)CCC4=O)c4cc5c(cc4C2(C)C)-c2ccc(S(=O)(=O)O)cc2C5(CCC(=O)NCCOCCOCCOCCOCCOCCOCCOCCOCCOCCOCCOC)CCC(=O)NCCOCCOCCOCCOCCOCCOCCOCCOCCOCCOCCOC)/CCC1)C3(C)C [Compound E16] | 832 | 823
CC1(C)C(/C=C/C=C/C=C/C=C2\N(CCCCCC(=O)ON3C(=O)CCC3=O)c3cc4c(cc3C2(C)C)-c2ccc(S(=O)(=O)O)cc2C42CCCCC2)=[N+](CCCS(=O)(=O)O)c2cc3c(cc21)-c1ccc(S(=O)(=O)[O-])cc1C31CCCCC1 [Compound E7] | 817 | 793
CC1(CCCCCC(=O)O)C(/C=C/C=C2\N(CCCS(=O)(=O)O)c3ccc(S(=O)(=O)[O-])cc3C2(C)C)=[N+](CCCS(=O)(=O)O)c2cc3c(cc21)-c1ccc(S(=O)(=O)O)cc1C3(C)C (stereo not drawn) [Compound E2] | 602 | 572
CC1(C)c2cc(S(=O)(=O)O)ccc2-c2cc3c(cc21)N(CCCCCC(=O)ON1C(=O)CCC1=O)\C(=C/C=C/C=C/C=C/C1=[N+](CCCS(=O)(=O)O)c2cc4c(cc2C12CCCCC2)-c1ccc(S(=O)(=O)[O-])cc1C4(C)C)C31CCCCC1 [Compound E6] | 820 | 795
CC1(C)C(/C=C/C=C/C=C2\N(CCCCCC(=O)ON3C(=O)CCC3=O)c3cc4c(cc3C2(C)C)-c2c(cc(S(=O)(=O)O)cc2S(=O)(=O)O)C4(C)C)=[N+](CCCCCC(=O)ON2C(=O)CCC2=O)c2cc3c(cc21)-c1c(cc(S(=O)(=O)O)cc1S(=O)(=O)[O-])C3(C)C [Compound E19] | 720 | 686
CCCOCCOCCOCCOCCOCCOCCOCCOCCOCCOCCONC(=O)CCC1(CCC(=O)NCCOCCOCCOCCOCCOCCOCCOCCOCCOCCOCCOC)c2cc(S(=O)(=O)O)ccc2-c2cc3c(cc21)N(CCCCCC(=O)ON1C(=O)CCC1=O)/C(=C/C=C/C=C/C1=[N+](CCCCCC(=O)ON2C(=O)CCC2=O)c2cc4c(cc2C1(C)C)-c1ccc(S(=O)(=O)[O-])cc1C4(CCC(=O)NCCOCCOCCOCCOCCOCCOCCOCCOCCOCCOCCOC)CCC(=O)NOCCOCCOCCOCCOCCOCCOCCOCCOCCOCCOCCC)C3(C)C (stereo not drawn) [Compound E14] | 721 | 696
